Assay: xn = mol fraction of the nth substance listed
Details: 100 kPa, Liquid; for viscosity: Concentric cylinders viscometry; for mass density: Vibrating tube method

COCOCOCOCOC [2,4,6,8,10-pentaoxaundecane] + COCOCOC
Details | mass density [kg/m3] | viscosity [mPa·s]
288.15 K, x2 = 0 | 1078.8 | 2.207
288.15 K, x2 = 0.12 | 1069.8 | 1.99
288.15 K, x2 = 0.24 | 1061.6 | 1.788
288.15 K, x2 = 0.35 | 1053.5 | 1.608
288.15 K, x2 = 0.45 | 1045.4 | 1.449
288.15 K, x2 = 0.55 | 1037.2 | 1.318
288.15 K, x2 = 0.65 | 1029 | 1.209
288.15 K, x2 = 0.74 | 1021 | 1.119
288.15 K, x2 = 0.83 | 1013.2 | 1.043
288.15 K, x2 = 0.92 | 1005.8 | 0.977
293.15 K, x2 = 0 | 1073.3 | 2.015
293.15 K, x2 = 0.12 | 1064.6 | 1.835
293.15 K, x2 = 0.24 | 1056.5 | 1.669
293.15 K, x2 = 0.35 | 1048.6 | 1.518
293.15 K, x2 = 0.45 | 1040.6 | 1.378
293.15 K, x2 = 0.55 | 1032.6 | 1.265
293.15 K, x2 = 0.65 | 1024.6 | 1.166
293.15 K, x2 = 0.74 | 1016.7 | 1.082
293.15 K, x2 = 0.83 | 1009 | 1.019
293.15 K, x2 = 0.92 | 1001.8 | 0.962
298.15 K, x2 = 0 | 1068.2 | 1.848
298.15 K, x2 = 0.12 | 1059.7 | 1.697
298.15 K, x2 = 0.24 | 1051.9 | 1.557
298.15 K, x2 = 0.35 | 1043.9 | 1.43
298.15 K, x2 = 0.45 | 1036 | 1.315
298.15 K, x2 = 0.55 | 1028 | 1.212
298.15 K, x2 = 0.65 | 1020.1 | 1.125
298.15 K, x2 = 0.74 | 1012.1 | 1.05
298.15 K, x2 = 0.83 | 1004.4 | 0.9918
298.15 K, x2 = 0.92 | 996.8 | 0.943
303.15 K, x2 = 0 | 1063.4 | 1.703
303.15 K, x2 = 0.12 | 1055.2 | 1.575
303.15 K, x2 = 0.24 | 1047.3 | 1.452
303.15 K, x2 = 0.35 | 1039.4 | 1.344
303.15 K, x2 = 0.45 | 1031.5 | 1.243
303.15 K, x2 = 0.55 | 1023.5 | 1.153
303.15 K, x2 = 0.65 | 1015.4 | 1.079
303.15 K, x2 = 0.74 | 1007.4 | 1.017
303.15 K, x2 = 0.83 | 999.4 | 0.97
303.15 K, x2 = 0.92 | 991.7 | 0.9255
308.15 K, x2 = 0 | 1059.1 | 1.576
308.15 K, x2 = 0.12 | 1050.9 | 1.466
308.15 K, x2 = 0.24 | 1043 | 1.361
308.15 K, x2 = 0.35 | 1035 | 1.264
308.15 K, x2 = 0.45 | 1027.2 | 1.175
308.15 K, x2 = 0.55 | 1019.2 | 1.099
308.15 K, x2 = 0.65 | 1011.3 | 1.036
308.15 K, x2 = 0.74 | 1003.2 | 0.9843
308.15 K, x2 = 0.83 | 995 | 0.943
308.15 K, x2 = 0.92 | 986.9 | 0.9043
313.15 K, x2 = 0 | 1055.2 | 1.464
313.15 K, x2 = 0.12 | 1047.2 | 1.371
313.15 K, x2 = 0.24 | 1039.4 | 1.278
313.15 K, x2 = 0.35 | 1031.5 | 1.194
313.15 K, x2 = 0.45 | 1023.7 | 1.117
313.15 K, x2 = 0.55 | 1015.8 | 1.05
313.15 K, x2 = 0.65 | 1007.9 | 0.9955
313.15 K, x2 = 0.74 | 999.8 | 0.9504
313.15 K, x2 = 0.83 | 991.3 | 0.916
313.15 K, x2 = 0.92 | 982.8 | 0.8847

COCOCOCOCOC [2,4,6,8,10-pentaoxaundecane] + COCOCOCOC
Details | mass density [kg/m3] | viscosity [mPa·s]
288.15 K, x2 = 0 | 1078.8 | 2.207
288.15 K, x2 = 0.12 | 1074.7 | 2.085
288.15 K, x2 = 0.24 | 1070.3 | 1.982
288.15 K, x2 = 0.35 | 1065.8 | 1.899
288.15 K, x2 = 0.45 | 1061.1 | 1.83
288.15 K, x2 = 0.55 | 1056.3 | 1.769
288.15 K, x2 = 0.65 | 1051.8 | 1.707
288.15 K, x2 = 0.74 | 1047.6 | 1.642
288.15 K, x2 = 0.83 | 1043.9 | 1.553
288.15 K, x2 = 0.86 | 1042.2 | –
288.15 K, x2 = 0.92 | 1039.9 | 1.442
288.15 K, x2 = 0.96 | 1039.1 | –
293.15 K, x2 = 0 | 1073.3 | 2.015
293.15 K, x2 = 0.12 | 1069.2 | 1.895
293.15 K, x2 = 0.24 | 1065.1 | 1.798
293.15 K, x2 = 0.35 | 1061 | 1.724
293.15 K, x2 = 0.45 | 1056.7 | 1.663
293.15 K, x2 = 0.55 | 1052.2 | 1.606
293.15 K, x2 = 0.65 | 1047.5 | 1.556
293.15 K, x2 = 0.74 | 1043.1 | 1.494
293.15 K, x2 = 0.83 | 1038.9 | 1.412
293.15 K, x2 = 0.86 | 1036.6 | –
293.15 K, x2 = 0.92 | 1034.6 | 1.311
293.15 K, x2 = 0.96 | 1032.4 | –
298.15 K, x2 = 0 | 1068.2 | 1.848
298.15 K, x2 = 0.12 | 1064.2 | 1.729
298.15 K, x2 = 0.24 | 1060 | 1.639
298.15 K, x2 = 0.35 | 1055.5 | 1.574
298.15 K, x2 = 0.45 | 1051.3 | 1.523
298.15 K, x2 = 0.55 | 1047.1 | 1.472
298.15 K, x2 = 0.65 | 1043.1 | 1.429
298.15 K, x2 = 0.74 | 1038.5 | 1.374
298.15 K, x2 = 0.83 | 1034.1 | 1.3
298.15 K, x2 = 0.86 | 1031.3 | –
298.15 K, x2 = 0.92 | 1029.3 | 1.21
298.15 K, x2 = 0.96 | 1026.3 | –
303.15 K, x2 = 0 | 1063.4 | 1.703
303.15 K, x2 = 0.12 | 1059.7 | 1.582
303.15 K, x2 = 0.24 | 1055.1 | 1.496
303.15 K, x2 = 0.35 | 1050.5 | 1.437
303.15 K, x2 = 0.45 | 1046.1 | 1.394
303.15 K, x2 = 0.55 | 1041.8 | 1.354
303.15 K, x2 = 0.65 | 1038 | 1.319
303.15 K, x2 = 0.74 | 1033.9 | 1.273
303.15 K, x2 = 0.83 | 1029.5 | 1.217
303.15 K, x2 = 0.86 | 1026.8 | –
303.15 K, x2 = 0.92 | 1024.2 | 1.139
303.15 K, x2 = 0.96 | 1020.7 | –
308.15 K, x2 = 0 | 1059.1 | 1.576
308.15 K, x2 = 0.12 | 1055.5 | 1.448
308.15 K, x2 = 0.24 | 1050.8 | 1.366
308.15 K, x2 = 0.35 | 1046.2 | 1.313
308.15 K, x2 = 0.45 | 1041.8 | 1.28
308.15 K, x2 = 0.55 | 1037.5 | 1.248
308.15 K, x2 = 0.65 | 1033.7 | 1.23
308.15 K, x2 = 0.74 | 1029.8 | 1.192
308.15 K, x2 = 0.83 | 1025.5 | 1.149
308.15 K, x2 = 0.86 | 1022.6 | –
308.15 K, x2 = 0.92 | 1019.8 | 1.087
308.15 K, x2 = 0.96 | 1015.6 | –
313.15 K, x2 = 0 | 1055.2 | 1.464
313.15 K, x2 = 0.12 | 1051.7 | 1.331
313.15 K, x2 = 0.24 | 1047.2 | 1.252
313.15 K, x2 = 0.35 | 1042.8 | 1.207
313.15 K, x2 = 0.45 | 1038.2 | 1.18
313.15 K, x2 = 0.55 | 1034.2 | 1.155
313.15 K, x2 = 0.65 | 1030.3 | 1.143
313.15 K, x2 = 0.74 | 1026.4 | 1.121
313.15 K, x2 = 0.83 | 1022.1 | 1.092
313.15 K, x2 = 0.86 | 1018.9 | –
313.15 K, x2 = 0.92 | 1016.2 | 1.044
313.15 K, x2 = 0.96 | 1011.6 | –

Reference: the NIST ThermoML archive (doi:10.1016/j.jct.2017.06.002)
